From US20090042849A1, “Phosphorylation of 5-lipoxygenase at ser523 and uses thereof” (priority 2006, published 2009)
Entries after “also recorded” stand apart in the source; their conditions may differ.

Legend:
5LO = experiment: immunofluorescence of 5LO in adult rat cardiomyocyte cultures; format: cell-based; conditions: PIO 10 μM, ATV 10 μM, H-89 0.1 μM, 12 hours
Method: (§1) Cardiac myocytes were isolated from adult Sprague-Dawley rats (250-300 g, male). Animals were heparinized (1,000-2,000 units i.p.) 5 min before being anesthetized with ketamine (100 mg/kg) and xylazine (10 mg/kg), and the hearts were removed and placed in ice-cold heart media solution (in mmol/l: 112 NaCl, 5.4 KCl, 1 MgCl2, 9 NaH2PO4, and 11.1 D-glucose; supplemented with 10 HEPES, 30 taurine, 2 DL-carnitine, and 2 creatine, pH. 7.4). The hearts were perfused retrogradely in a Langendorff apparatus with Ca^2+-free heart media for 5 min at 5 ml/min at 37° C., followed by perfusion with Ca^2+-free heart media containing collagenase II, 210 U/mg (Worthington, Lakewood, N.J.) for 20 min. After perfusion, both ventricles were removed from the heart and minced in collagenase II-containing heart media for 10-15 min. The cell solution was then washed several times to remove collagenase II and reexposed to 1.2 mM Ca2^+ over 25 min to produce Ca2^+-tolerant cardiac myocytes. […]
(§2) Immunofluorescent labeling was performed on paraffin sections (5-μm) of 4% formaldehyde-fixed rat cardiac tissue, as described previously (22). […] All the slides were viewed under an Olympus BX51 microscope [images recorded by a DP70 Digital camera (Olympus Optical Co., Ltd., Tokyo, Japan)] or confocal microscope (Bio-Rad 2100 (Hercules, Calif.).

15ELXA = 15ELXA levels in adult rat cardiac myocytes (ELISA); format: cell-based
LTB4 = LTB4 levels in adult rat cardiac myocytes (ELISA); format: cell-based; conditions: PIO 10 μM, ATV 10 μM, H-89 0.1 μM, 12 hours
Method: as §1, with “myocytes. Myocytes were then plated in 4% FBS on laminin (2 μg/cm^2)-coated plates for 1 h and incubated at 37° C. in 5% CO2 for 12-24 h before experiments (21). Cells were incubated with 1) vehicle (0.07% ethanol); 2) PIO (10 μM)+ATV (10 μM); 3) H-89 (0.1 μM); or 4) PIO+ATV+H-89 for 12 hours. The supernatants were collected directly for LTB4 analyses by ELISA and the cells were harvested for immunoblotting.” for “myocytes.”

COX2 = experiment: immunofluorescence of COX2 in adult rat cardiac myocytes; format: cell-based
Method: as §1, §2

cPLA2 = experiment: immunofluorescence of cPLA2 in adult rat cardiac myocytes; format: cell-based; conditions: PIO 10 μM, ATV 10 μM, H-89 0.1 μM, 12 hours
Method: as §1, §2

[1] = system: 5LO interaction with COX2 / cPLA2; experiment: co-immunoprecipitation of 5LO with COX2 and cPLA2 in rat hearts; format: in vivo
Method: Rats received: 1) PIO (10 mg/kg/d); 2) ATV (10 mg/kg/d); 3) PIO (10 mg/kg/d)+H89 (20 mg/kg); 4) ATV (10 mg/kg/d)+H89 (20 mg/kg); 5) H89 (20 mg/kg) or 6) water alone (control). PIO and ATV were suspended in water and administered by gastric gavage once daily for 3 days; H-89 was dissolved in DMSO (final concentration 5% v/v) and injected intraperitoneally on the third day. Rats in groups 5 and 6 received water by gastric gavage once daily for 3 days. Rats in groups 1, 2 and 6 received intraperitoneal inkection of DMSO 5%. Sixteen hours after the injection, rats were euthanized and the hearts explanted for further analyses. In another experiment, rats received 3-day pretreatment with: 1) water (sham); 2) PIO (10 mg/kg/d); 3) ATV (10 mg/kg/d); 4) PIO (10 mg/kg/d)+ATV (10 mg/kg/d); or 5) LPS (10 mg/kg).
For co-immunoprecipitation, myocardial cytosolic, membranous and nuclear fractions (500 μg) were incubated with anti-5LO antibodies for 4 h followed by overnight incubation at 4° C. with Protein-A-Agarose. The agarose beads were collected by centrifugation and SDS/PAGE Western immunoblotting was performed with the supernatant fraction. The anti-5LO precipitates were subjected to immunoblotting with anti-COX2 or anti-cPLA2 antibodies.

[2] = PIO 10 μM, ATV 10 μM, H-89 0.1 μM, 12 hours

Compound | 5LO expression and localization in cardiomyocytes (5LO) | effect on the PIO+ATV augmentation of 15ELXA levels (15ELXA; H-89 0.1 μM with PIO+ATV) | levels of 15ELXA (15ELXA; [2]) | LTB4 levels (LTB4) | effect on the increased expression of COX2 by PIO+ATV (COX2; H-89 0.1 μM with PIO+ATV) | COX2 expression (COX2; [2]) | cPLA2 expression (cPLA2) | fraction in which the co-immunoprecipitation with 5LO occurred ([1]; cytosolic and membranous fractions) | co-immunoprecipitation of COX2 or cPLA2 with 5LO ([1]; whole cell lysate)
O=S(=O)(NCCNC/C=C/c1ccc(Br)cc1)c1cccc2cnccc12 [H-89] | no effect | attenuated | no effect | no significant effect | did not affect; also recorded: no effect | no effect | no effect | – | –
CC(C)c1c(C(=O)Nc2ccccc2)c(-c2ccccc2)c(-c2ccc(F)cc2)n1CCC(O)CC(O)CC(=O)O (stereo not drawn) [ATV, 7-[2-(4-fluorophenyl)-5-(1-methylethyl)-3-phenyl-4-(phenylcarbamoyl)-1H-pyrrol-1-yl]-3,5-dihydroxy-heptanoic acid] | – | – | – | – | – | – | – | in the cytosolic, but not the membranous fraction; also recorded: only in the cytosolic fraction | 5LO precipitated with COX2 and COX2, but not cPLA2, precipitated with 5LO
